According to article PMC5129534, “Selective Enzymatic Transformation to Aldehydes in vivo by Fungal Carboxylate Reductase from Neurospora crassa” (Advanced Synthesis & Catalysis, 2016):
Blank lines part the entries; values can stand above or below the compound they belong to.

Tests used:
NcCAR [1] = molecular target: T1, NcCAR (Neurospora crassa, UniProt Q7RW48); test: spectrophotometric NADPH depletion assay, […] nm, initial rates; format: biochemical; details: apparent, ATP, MgCl2, MES buffer pH 6.0, 28 °C, 5% v/v DMSO
T1 construct: gene NCU05000; full length, codon-optimized gene, N-terminal TEV-cleavable His-tag (removed for kinetics), pETDUET1, co-expressed with E. coli phosphopantetheinyl transferase (CAQ31055.1) in E. coli BL21 (DE3) Star; 120 kDa
T1 sequence (Q7RW48 whole entry): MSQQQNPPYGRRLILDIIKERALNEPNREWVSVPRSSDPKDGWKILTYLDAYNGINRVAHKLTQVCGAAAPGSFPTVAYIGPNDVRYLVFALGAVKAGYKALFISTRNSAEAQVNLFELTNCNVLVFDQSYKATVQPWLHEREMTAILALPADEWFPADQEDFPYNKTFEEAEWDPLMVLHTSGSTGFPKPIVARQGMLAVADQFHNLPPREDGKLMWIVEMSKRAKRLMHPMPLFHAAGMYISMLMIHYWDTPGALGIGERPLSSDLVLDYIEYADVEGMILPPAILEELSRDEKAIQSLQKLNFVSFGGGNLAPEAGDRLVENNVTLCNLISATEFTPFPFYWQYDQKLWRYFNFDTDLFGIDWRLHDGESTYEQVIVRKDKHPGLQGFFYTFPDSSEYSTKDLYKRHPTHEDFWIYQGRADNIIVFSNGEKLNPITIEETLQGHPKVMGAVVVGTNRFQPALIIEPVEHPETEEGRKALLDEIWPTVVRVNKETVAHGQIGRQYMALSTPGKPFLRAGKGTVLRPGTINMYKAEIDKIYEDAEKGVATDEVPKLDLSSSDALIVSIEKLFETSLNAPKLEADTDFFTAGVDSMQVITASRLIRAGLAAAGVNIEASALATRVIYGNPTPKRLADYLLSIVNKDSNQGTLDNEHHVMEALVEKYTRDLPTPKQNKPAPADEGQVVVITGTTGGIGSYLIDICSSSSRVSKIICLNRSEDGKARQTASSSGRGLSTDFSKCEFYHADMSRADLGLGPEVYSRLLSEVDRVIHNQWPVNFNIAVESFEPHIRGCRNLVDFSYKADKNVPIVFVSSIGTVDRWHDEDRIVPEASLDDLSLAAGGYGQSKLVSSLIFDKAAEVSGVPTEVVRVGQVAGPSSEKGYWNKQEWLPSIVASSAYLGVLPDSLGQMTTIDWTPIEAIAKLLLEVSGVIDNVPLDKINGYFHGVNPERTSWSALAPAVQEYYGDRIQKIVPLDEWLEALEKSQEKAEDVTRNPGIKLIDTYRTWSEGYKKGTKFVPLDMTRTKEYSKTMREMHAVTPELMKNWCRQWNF

O=C(O)c1ccc2c(c1)OCO2 = test: purified protein; format: biochemical, Neurospora crassa; details: apparent, ATP, NADPH, MgCl2, MES buffer pH 6.0, 28 °C, substrate in water with equimolar KOH
NcCAR [2] = molecular target: T1, NcCAR; test: time-resolved […] NMR of cinnamic acid reduction; relief of inhibition by pyrophosphatase; format: biochemical; details: co-product inhibition, inferred, ATP, NADPH, MgCl2, Tris-HCl pH 7.5

Km (NcCAR [1]): 445 ± 50 µM
Compound: O=C(O)/C=C/c1ccccc1 [1a, cinnamic acid]

Compound: NcCAR (Neurospora crassa OR74A)
Km (O=C(O)c1ccc2c(c1)OCO2): 173 ± 22 µM
kcat (O=C(O)c1ccc2c(c1)OCO2): 7.46 s⁻¹

Compound: O=P(O)(O)OP(=O)(O)O [pyrophosphate]
time-resolved 31P NMR of cinnamic acid reduction; relief of inhibition by pyroph (NcCAR [2]): these results indicate the inhibition of NcCAR by the co‐product pyrophosphate
